From patent publication US10645927B2, “Antimicrobial wipe” (Carefusion 2200, Inc., priority 2015, dated 2020)
Structures can show the parent of a compound that is named as a salt. Marks after values point to notes of the source that are not given here.

System: Staphylococcus aureus ATCC 29213
Assay: Bactericidal activity by time kill method
Format: cell-based
Settings: for Average Log: Baseline 7.123; for concentration required to deliver >3 log reduction in viable count: within 30 seconds of contact time
Protocol: Multiple surfactants in solution formulations were tested for use with the wipes. Effects of individual excipients such as phosphate buffer, polysorbate 20, nonoxynol-9, Cremophor® RH-40, dimethicone, and combinations of these products were investigated to determine the possibility of adverse effects on the antimicrobial efficacy of octenidine dihydrochloride. Bactericidal activities of octenidine dihydrochloride alone and in combinations with various excipients (Table 11) were tested by a time kill method using Staphylococcus aureus ATCC 29213 as test organism (Table 12).
Neutralizing effects of two similar surfactants, 0.5% Cremophor® RH40 and 0.5% polysorbate 20, on the bactericidal activity of octenidine dihydrochloride were tested using the Staphylococcus aureus ATCC 29213 as test organism (Table 13 and 14).

[1] = OCT 20 PPM, 0.5% Cremophor ® RH40, 30 seconds
[2] = OCT 20 PPM, 0.5% Polysorbate 20, 30 seconds
[3] = OCT 20 PPM, Aqueous, 30 seconds
[4] = OCT 100 PPM, 0.5% Cremophor ® RH40, 30 seconds
[5] = OCT 100 PPM, 0.5% Polysorbate 20, 30 seconds
[6] = OCT 100 PPM, Aqueous, 30 seconds
[7] = OCT 500 PPM, 0.5% Cremophor ® RH40, 30 seconds
[8] = OCT 500 PPM, 0.5% Polysorbate 20, 30 seconds
[9] = OCT 500 PPM, Aqueous, 30 seconds
[10] = OCT 4000 PPM, Full base formulation with Cremophor ® RH40
[11] = OCT 4000 PPM, Full base formulation with Polysorbate 20 (Table 13)

SMILES: CCCCCCCCN=c1ccn(CCCCCCCCCCn2ccc(=NCCCCCCCC)cc2)cc1 [OCT, octenidine dihydrochloride]
- Log Reduction (OCT 2 PPM in 0.1% Nonoxynol-9 in water, 30 seconds): 1.52
- Log Reduction (OCT 2 PPM in 0.25% Dimethicone in water, 30 seconds): 1.17
- Log Reduction (OCT 2 PPM in 1.5% Polysorbate 20 in water, 30 seconds): 0.30
- Log Reduction (OCT 2 PPM in Full base formulation with Nonoxynol-9 and Polysorbate 20 (Table 11), 30 seconds): 0.29
- Log Reduction (OCT 2 PPM in Full base formulation with Polysorbate 20 (Table 11), 30 seconds): 0.04
- Log Reduction (OCT 2 PPM in Phosphate Buffered Water, pH 6.0, 30 seconds): 1.39
- Log Reduction (OCT 2 PPM in Water, contact time 30 seconds): 3.41
- Log Reduction (OCT 20 PPM in 0.1% Nonoxynol-9 in water, 30 seconds): 2.94
- Log Reduction (OCT 20 PPM in 0.25% Dimethicone in water, 30 seconds): 1.41
- Log Reduction (OCT 20 PPM in 1.5% Polysorbate 20 in water, 30 seconds): 0.57
- Log Reduction (OCT 20 PPM in Full base formulation with Nonoxynol-9 and Polysorbate 20 (Table 11), 30 seconds): 0.58
- Log Reduction (OCT 20 PPM in Full base formulation with Polysorbate 20 (Table 11), 30 seconds): 0.35
- Log Reduction (OCT 20 PPM in Phosphate Buffered Water, pH 6.0, 30 seconds): 2.87
- Log Reduction (OCT 20 PPM in Water, contact time 30 seconds): 3.78
- Average Log Reduction [1]: 0.740
- Percent Reduction [1]: 81.808%
- Average Log [1]: 6.383
- Average Log Reduction [2]: 0.795
- Percent Reduction [2]: 83.979%
- Average Log [2]: 6.327
- Average Log Reduction [3]: 5.123
- Percent Reduction [3]: 99.999%
- Average Log [3]: 2.000
- Log Reduction (OCT 100 PPM in 0.1% Nonoxynol-9 in water, 30 seconds): 4.69
- Log Reduction (OCT 100 PPM in 0.25% Dimethicone in water, 30 seconds): 1.67
- Log Reduction (OCT 100 PPM in 1.5% Polysorbate 20 in water, 30 seconds): 1.01
- Log Reduction (OCT 100 PPM in Full base formulation with Nonoxynol-9 and Polysorbate 20 (Table 11), 30 seconds): 0.60
- Log Reduction (OCT 100 PPM in Full base formulation with Polysorbate 20 (Table 11), 30 seconds): 0.49
- Log Reduction (OCT 100 PPM in Phosphate Buffered Water, pH 6.0, 30 seconds): 4.78
- Log Reduction (OCT 100 PPM in Water, contact time 30 seconds): 4.65
- Average Log Reduction [4]: 1.472
- Percent Reduction [4]: 96.624%
- Average Log [4]: 5.651
- Average Log Reduction [5]: 1.205
- Percent Reduction [5]: 93.767%
- Average Log [5]: 5.917
- Average Log Reduction [6]: 5.123
- Percent Reduction [6]: 99.999%
- Average Log [6]: 2.000
- Log Reduction (OCT 500 PPM in 0.1% Nonoxynol-9 in water, 30 seconds): 5.12
- Log Reduction (OCT 500 PPM in 0.25% Dimethicone in water, 30 seconds): 2.12
- Log Reduction (OCT 500 PPM in 1.5% Polysorbate 20 in water, 30 seconds): 1.12
- Log Reduction (OCT 500 PPM in Full base formulation with Nonoxynol-9 and Polysorbate 20 (Table 11), 30 seconds): 1.40
- Log Reduction (OCT 500 PPM in Full base formulation with Polysorbate 20 (Table 11), 30 seconds): 0.76
- Log Reduction (OCT 500 PPM in Phosphate Buffered Water, pH 6.0, 30 seconds): 5.12
- Log Reduction (OCT 500 PPM in Water, contact time 30 seconds): 5.12
- Average Log Reduction [7]: 5.123
- Percent Reduction [7]: 99.999%
- Average Log [7]: 2.000
- Average Log Reduction [8]: 3.080
- Percent Reduction [8]: 99.917%
- Average Log [8]: 4.043
- Average Log Reduction [9]: 5.123
- Percent Reduction [9]: 99.999%
- Average Log [9]: 2.000
- Log Reduction (OCT 1000 PPM in Full base formulation with Nonoxynol-9 and Polysorbate 20, total kill, value is limit of detection): ≥ 3.94*
- Log Reduction (OCT 2000 PPM in Full base formulation with Nonoxynol-9 and Polysorbate 20, total kill, value is limit of detection): ≥ 4.14*
- Log Reduction (OCT 4000 PPM in Full base formulation with Nonoxynol-9 and Polysorbate 20, total kill, value is limit of detection): ≥ 4.14*
- Average Log Reduction [10]: 4.123
- Percent Reduction [10]: 99.992%
- Average Log [10]: 3.000
- Average Log Reduction [11]: 4.123
- Percent Reduction [11]: 99.992%
- Average Log [11]: 3.000
- percent reduction in viable count at 2 ppm (Staphylococcus aureus, ATCC29213, octenidine dihydrochloride alone, 2 PPM, contact time of 30 seconds): > 99.9%
- concentration required to show 99.9% reduction in viable count (dissolved in pH 6.0 phosphate buffered water): > 20 PPM
- microbicidal activity in the full base formulation (higher than 1000 PPM of octenidine dihydrochloride, full base formulation of Table 11): rapidly microbicidal
- concentration required for 99.9% reduction relative to the concentration in water (pH 6.0 phosphate buffered water vs water): > 10 times
- concentration required to deliver >3 log reduction in viable count (with 0.5% Cremophor® RH40): 500 PPM
- concentration required to deliver >3 log reduction in viable count (with 0.5% polysorbate 20): 500 PPM
